Earlier results as cited in patent publication US20210315817A1, “C[…] SELF-EMULSION SYSTEMS FOR INFUSED COMPOSITIONS” (HEXO […]., priority 2018, published 2021).

Details: individual emulsifier HLB value

Question: Which “Emuls. HLB” value does the source give for “polyoxyethylene sorbitan monolaurate [Tween ® 20]” here?
Answer: 16.7
